Counter-ions that a name gives are not always drawn.
What was measured:
[1] = molecular target: T1, p38alpha (Homo sapiens, UniProt Q16539); test: P38Alpha enzyme inhibition assay (Alphascreen kinase activity assay); format: biochemical; conditions: 100 pM p38alpha, 250 μM ATP, 2 hours pre-incubation at 25° C., read-out: p38α inhibition (IC50 values)
T1 construct: purchased Invitrogen PV3304
How it was run: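 p38α (100 pM) with ATF-2 fusion protein substrate (0.3 µg/ml) in pH 7.5 HEPES/MgCl2 buffer, 1% DMSO, preincubated 2 h at 25°C with compound. Reaction started with 250 µM ATP, ran 1 h at 25°C, then stopped with EDTA. Phospho-ATF2 antibody detected by AlphaScreen luminescence; IC50 from concentration-response curves.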

[2] = system: LPS-stimulated TNFα release from PBMCs; test: LPS-stimulated PBMC TNFα release assay; format: cell-based; conditions: inhibition of TNFα release, human PBMCs, LPS 10 ng/ml, 18 h, ELISA, read-out: p38α inhibition (IC50 values)
How it was run: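 Healthy-donor human PBMCs, density-gradient isolated, preincubated 1 h at 37 °C with compound in 1% FBS RPMI 1640, then stimulated with LPS (10 ng/ml) for 18 h. Supernatant TNFα by ELISA; IC50 from dose-response of % inhibition of control release, n≥3 experiments.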

T1 sequence (Q16539 whole entry): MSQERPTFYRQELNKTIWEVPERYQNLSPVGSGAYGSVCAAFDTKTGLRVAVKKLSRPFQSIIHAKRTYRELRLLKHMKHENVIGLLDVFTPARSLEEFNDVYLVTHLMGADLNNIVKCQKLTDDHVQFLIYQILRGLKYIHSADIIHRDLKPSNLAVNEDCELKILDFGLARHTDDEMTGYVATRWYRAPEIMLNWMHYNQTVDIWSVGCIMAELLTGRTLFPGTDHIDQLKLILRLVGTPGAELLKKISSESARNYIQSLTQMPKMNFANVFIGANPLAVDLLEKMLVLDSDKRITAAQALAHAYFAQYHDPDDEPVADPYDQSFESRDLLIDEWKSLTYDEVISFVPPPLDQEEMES

Compound	IC50 [1]	IC50 [2]
CC(C)(C)c1cc(NC(=O)N[C@H]2CC[C@@H](Oc3ccc4nnc(N5CCC(O)CC5)n4c3)c3ccccc32)n(-c2ccc(CO)cc2)n1 [Example 57, 1-[5-tert-Butyl-2-(4-hydroxymethyl-phenyl)-2H-pyrazol-3-yl]-3-{(1S,4R)-4-[3-(4-hydroxy-piperidin-1-yl)-[1,2,4]triazolo[4,3-a]pyridin-6-yloxy]-1,2,3,4-tetrahydro-naphthalen-1-yl}-urea]	< 10 nM	10 to 100 nM
Cc1ccc(-n2nc(C(C)(C)C)cc2NC(=O)N[C@H]2CC[C@@H](Oc3ccc4nnc(CC5CCN(C)CC5)n4c3)c3ccccc32)cc1 [Example 22, 1-(5-tert-Butyl-2-p-tolyl-2H-pyrazol-3-yl)-3-{(1S,4R)-4-[3-(1-methyl-piperidin-4-ylmethyl)-[1,2,4]triazolo[4,3-a]pyridin-6-yloxy]-1,2,3,4-tetrahydro-naphthalen-1-yl}-urea]	< 10 nM	100 to 1000 nM
CC(C)(C)c1cc(NC(=O)N[C@H]2CC[C@@H](Oc3ccc4nnc(N5CCCCC5)n4c3)c3ccccc32)n(-c2cccc(CN3CCC(O)CC3)c2)n1 [Example 52, 1-{5-tert-Butyl-2-[3-(4-hydroxy-piperidin-1-ylmethyl)-phenyl]-2H-pyrazol-3-yl}-3-[(1S,4R)-4-(3-piperidin-1-yl-[1,2,4]triazolo[4,3-a]pyridin-6-yloxy)-1,2,3,4-tetrahydro-naphthalen-1-yl]-urea]	< 10 nM	< 10 nM
C[C@H]1CCCCN1c1nnc2ccc(O[C@@H]3CC[C@H](NC(=O)Nc4cc(C(C)(C)C)nn4CCN4CCN(C)CC4)c4ccccc43)cn12 [Example 129, 1-{5-tert-Butyl-2-[2-(4-methyl-piperazin-1-yl)-ethyl]-2H-pyrazol-3-yl}-3-{(1S,4R)-4-[3-((S)-2-methyl-piperidin-1-yl)-[1,2,4]triazolo[4,3-a]pyridin-6-yloxy]-1,2,3,4-tetrahydro-naphthalen-1-yl}-urea formate salt]	< 10 nM	10 to 100 nM

Now from value to molecule, other results behind:

IC50 [1]	Compound	IC50 [2]
< 10 nM	CN1CCC[C@H]1c1nnc2ccc(O[C@@H]3CC[C@H](NC(=O)Nc4cc(C(C)(C)C)nn4-c4cccc(SCCO)c4)c4ccccc43)cn12 [Example 35, 1-{5-tert-Butyl-2-[3-(2-hydroxy-ethylsulfanyl)-phenyl]-2H-pyrazol-3-yl}-3-{(1S,4R)-4-[3-((S)-1-methyl-pyrrolidin-2-yl)-[1,2,4]triazolo[4,3-a]pyridin-6-yloxy]-1,2,3,4-tetrahydro-naphthalen-1-yl}-urea]	< 10 nM
< 10 nM	C[C@@H]1CCC[C@H](C)N1c1nnc2ccc(O[C@@H]3CC[C@H](NC(=O)Nc4cc(C(C)(C)C)nn4-c4cnn(CCN(C)C)c4)c4ccccc43)cn12 [Example 125, 1-[3-tert-Butyl-1′-(2-dimethylamino-ethyl)-1′H-[1,4′]bipyrazolyl-5-yl]-3-{(1S,4R)-4-[3-((2S,6R)-2,6-dimethyl-piperidin-1-yl)-[1,2,4]triazolo[4,3-a]pyridin-6-yloxy]-1,2,3,4-tetrahydro-naphthalen-1-yl}-urea]	< 10 nM
< 10 nM	Cc1ccc(-n2nc(C(C)(C)C)cc2NC(=O)N[C@H]2CC[C@@H](Oc3ccc4nnc(N5CCC[C@@H]5CO)n4c3)c3ccccc32)cc1 [Example 27, 1-(5-tert-Butyl-2-p-tolyl-2H-pyrazol-3-yl)-3-{(1S,4R)-4-[3-((R)-2-hydroxymethyl-pyrrolidin-1-yl)-[1,2,4]triazolo[4,3-a]pyridin-6-yloxy]-1,2,3,4-tetrahydro-naphthalen-1-yl}-urea]	< 10 nM
< 10 nM	CC(C)N(c1nnc2ccc(O[C@@H]3CC[C@H](NC(=O)Nc4cc(C(C)(C)C)nn4-c4cccc(OCCN(C)C)c4)c4ccccc43)cn12)C(C)C [Example 103, 1-{5-tert-Butyl-2-[3-(2-dimethylamino-ethoxy)-phenyl]-2H-pyrazol-3-yl}-3-[(1S,4R)-4-(3-diisopropylamino-[1,2,4]triazolo[4,3-a]pyridin-6-yloxy)-1,2,3,4-tetrahydro-naphthalen-1-yl]-urea]	< 10 nM
